# Source: patent US20070141645A1, “Measuring method using whole blood” (MITSUBISHI KAGAKU IATRON, INC., priority 2005, published 2007)
# Where two headings read alike, the source gives them in different places.
# How the values were obtained:
# endogenous ALP = endogenous ALP (Homo sapiens, UniProt P05186); conditions: 3 weeks
# Protocol: To a solution containing 0.4 mM CDP-Star, levamisole was added to final concentrations of 0.4, 1.0 and 4.0 mM to prepare substrate solutions to be examined. As a control, a substrate solution containing 0.4 mM CDP-Star without levamisole was used. Each solution was kept at 4, 25, and 37° C. for 3 weeks, and each remaining activity was measured.
# Further, the substrate solutions containing 0.4 mM levamisole and kept at 4° C. and 37° C. for 3 weeks were used to confirm the inhibitory effect of levamisole.
# ALP used as the label = conditions: addition of levamisole 0.2 mM; positive control
# Protocol: (§1) The whole blood sample showing a high background in Example 1 was used as a whole blood negative control, and a plasma obtained by centrifuging the whole blood sample was used as a plasma negative control. Further, a sample obtained by adding a commercially available cTnI (10 ng/mL) to the whole blood sample was used as a whole blood positive control, and a plasma obtained by centrifuging the whole blood positive control was used as a plasma positive control. The obtained 4 samples were measured using the automated immunoanalyzer and the reagent kit for measuring cTnI, as described in Example 1 or 2, except that the ALP-labeled antibody was used as the second antibody.
# (§2) Levamisole (SIGMA) was used to examine an inhibitory effect on an endogenous ALP. Levamisole was added to the solution of magnetic particles, the substrate solution, or both thereof at the final concentration of 0.2 mM. When levamisole was added to the solution of magnetic particles, the inhibitor acted in the measuring step (1) of the automated immunoanalyzer described in Example 1. When levamisole was added to the substrate solution, the inhibitor acted in the measuring step (3).
# [1] = biological target: endogenous ALP in whole blood (Homo sapiens, UniProt P05186); conditions: for Positive control (S) measured value (count of luminescence): cTnI 10 ng/mL added
# endogenous ALP in whole blood, sequence (P05186 18-501 limits assumed): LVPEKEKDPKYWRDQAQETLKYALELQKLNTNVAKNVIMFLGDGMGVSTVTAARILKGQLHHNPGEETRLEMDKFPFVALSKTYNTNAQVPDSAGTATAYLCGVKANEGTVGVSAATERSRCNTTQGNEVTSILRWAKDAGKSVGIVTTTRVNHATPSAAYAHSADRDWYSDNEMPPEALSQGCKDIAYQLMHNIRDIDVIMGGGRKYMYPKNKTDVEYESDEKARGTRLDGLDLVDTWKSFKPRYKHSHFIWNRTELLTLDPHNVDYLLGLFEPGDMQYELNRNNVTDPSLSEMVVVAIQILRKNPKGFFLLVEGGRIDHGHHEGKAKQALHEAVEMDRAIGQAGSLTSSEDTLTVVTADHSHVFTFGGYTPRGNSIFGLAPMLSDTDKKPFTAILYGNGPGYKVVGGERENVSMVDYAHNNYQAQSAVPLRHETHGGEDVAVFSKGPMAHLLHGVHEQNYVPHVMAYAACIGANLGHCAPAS
# Protocol: Each sample was measured using a reagent kit for measuring cardiac troponin I (cTnI). The kit contained a solution of the first antibody specific to cTnI (a solution of magnetic particles), a solution of the labeled second antibody, a B/F washing liquid, a substrate solution, and the like, and was packaged in a cartridge applicable to an automated immunoanalyzer described below. In this example, a buffer not containing a labeled antibody was used, instead of the solution of the second antibody labeled with an alkaline phosphatase (hereinafter referred to as “ALP”). The measurement was carried out using an automated immunoanalyzer for an immunoassay using magnetic particles, as disclosed in Japanese Patent No. 3115501. […] The measuring step in the analyzer will be described below.
# A chemiluminescent substrate CDP-Star (Tropics) was used as a substrate. A count of luminescence detected by a photomultiplier tube (PMT) was regarded as a result of the measurement.
# Each cartridge for an automatic measurement was filled with each sample, a liquid for diluting a sample, the solution of magnetic particles (coated with the first antibody), the washing liquid for B/F separation, the solution of the second antibody, the substrate solution, and the like, and set to the automated analyzer. The following steps were carried out in accordance with a normal procedure: • (1) The sample solution, the solution of magnetic particles, and the solution of the second antibody, previously adjusted to predetermined dilutions with the diluting liquid, were mixed to generate an immunocomplex by an antigen-antibody reaction. • (2) A B/F separation was carried out to remove unreacted substances as follows. The resulting reaction liquid was aspirated into the tip arranged as a line for aspirating a solution, and the magnetic particles were trapped by contact with a magnet on the outer wall of the tip. The solution was delivered from the tip while trapping the magnetic particles on the inner wall of the tip. After the separation, the washing liquid for the B/F separation filled in another reaction vessel was aspirated and delivered to wash the magnetic particles in the tip. • (3) The magnet was separated from the outer wall of the tip. The substrate solution was aspirated and delivered to disperse the magnetic particles trapped on the inner wall of the tip and carry out an enzyme reaction. • (4) An amount of luminescence was measured by PMT.
# as §1, §2
# [2] = levamisole 0.2 mM in magnetic particles solution and substrate solution
# [3] = levamisole 0.2 mM in substrate solution only
# [4] = plasma (a), levamisole 0.2 mM in magnetic particles solution and substrate solution
# [5] = plasma (a), levamisole 0.2 mM in substrate solution only
# [6] = whole blood (b), levamisole 0.2 mM in magnetic particles solution and substrate solution
# [7] = whole blood (b), levamisole 0.2 mM in substrate solution only
# endogenous ALP, sequence (P05186 18-501 limits assumed): as above
structure (smiles),measurement,setting,value
c1ccc([C@H]2CN3CCSC3=N2)cc1 [levamisole],count with stored substrate solution (inhibitory effect of levamisole),endogenous ALP; 0.4 mM levamisole in 0.4 mM CDP-Star substrate solution kept at 4° C.,4086
same,count with stored substrate solution (inhibitory effect of levamisole),endogenous ALP; 0.4 mM levamisole in 0.4 mM CDP-Star substrate solution kept at 37° C.,2920
same,effect on the ALP used as the label,ALP used as the label,did not adversely affect
same,increased background caused by an endogenous ALP in whole blood samples or hemolized samples,[1]; addition of levamisole 0.2 mM,suppressed
same,Negative control b/a (whole blood to plasma),[1]; [2],2.33
same,Positive control b/a (whole blood to plasma),[1]; [2],1.22
same,b/[levamisole (—) whole blood negative control],[1]; [2],0.18
same,b/[levamisole (—) whole blood positive control],[1]; [2],0.79
same,Negative control b/a (whole blood to plasma),[1]; [3],2.41
same,Positive control b/a (whole blood to plasma),[1]; [3],1.33
same,b/[levamisole (—) whole blood negative control],[1]; [3],0.17
same,b/[levamisole (—) whole blood positive control],[1]; [3],0.94
same,Positive control (S) measured value (count of luminescence),[1]; [4],78622
same,Positive control (S) measured value (count of luminescence),[1]; [5],84776
same,Negative control (N) measured value (count of luminescence),[1]; [4],808
same,S/N (positive control to negative control),[1]; [4],97.3
same,Negative control (N) measured value (count of luminescence),"[1]; plasma (a), levamisole 0.2 mM in substrate (CDP-star) solution only",708
same,S/N (positive control to negative control),[1]; [5],119.7
same,Positive control (S) measured value (count of luminescence),[1]; [6],95856
same,Positive control (S) measured value (count of luminescence),[1]; [7],113017
same,Negative control (N) measured value (count of luminescence),[1]; [6],1883
same,S/N (positive control to negative control),[1]; [6],50.9
same,Negative control (N) measured value (count of luminescence),"[1]; whole blood (b), levamisole 0.2 mM in substrate (CDP-star) solution only",1705
same,S/N (positive control to negative control),[1]; [7],66.3
